Results reported in patent US20200055897A1, “MODIFIED PEPTOIDS” (Technion Research & Development Foundation Limited, priority 2017, published 2020).
Starred links: 1 amine or outer side, 2 acyl side, 3 side chain; linkers in the order of their positions; H or OH if unused. Non-standard residues stand in square brackets, D forms with d. Residues, ends and D or L forms follow the SMILES beside them. *: point of attachment. N(1S-cyclohexylethyl)Gly = C[C@H](NCC(=O)O)C1CCCCC1; Gly(N-CH2CH2C6H4-4Cl) = O=C(O)CNCCc1ccc(Cl)cc1; NMeGly(N-(2-F-benzyl)) = CN(CC(=O)*)Cc1ccccc1F; Acetyl(2-(piperazin-1-yl)) = O=C(CN1CCNCC1)*; Hydrazinoacetyl = O=C(CNN[*:1])[*:2]; Gly(Nα-NHCO2Et) = CCOC(=O)NNCC(=O)O; Nrpe = C[C@@H](NCC(=O)O)c1ccccc1; Nspe = C[C@H](NCC(=O)O)c1ccccc1; X1 = O=C(CN1CCN([*:1])CC1)[*:2]; Ethoxycarbonyl = CCOC(=O)*; Nphe = O=C(O)CNCc1ccccc1; X5 = NC(=O)CN1CCN(*)CC1; X3 = O=C(CN1CCCNCC1)*

Assay: General method for water solubility test (gradual addition of water to 1 mg peptoid until clear)
Format: physicochemical
Settings: not given
Experimental: 1 mg peptoid was placed in an Eppendorf container and water was added gradually (e.g., […] per addition) until a clear solution was obtained. The solubility test was repeated three times and average values are presented. The limit of the test was typically 2.0×10^2 mg/liter (i.e., 1 mg per 5 ml).
Water solubility tests were carried out by a gradual addition of 5 μl distilled water to 1 mg peptoid until a clear solution was obtained. This assay was repeated three times and results were averaged.

Row | Compound | solubility | Water solubility relative to that of P2
1 | C[C@H](NCC(=O)N(CC(=O)N(CC(=O)N(CC(=O)N(CC(=O)N(CC(N)=O)[C@@H](C)c1ccccc1)[C@@H](C)c1ccccc1)[C@@H](C)c1ccccc1)[C@@H](C)c1ccccc1)[C@@H](C)c1ccccc1)c1ccccc1 [Peptoid P1, (Nspe)6, reference compound] (H-[Nspe][Nspe][Nspe][Nspe][Nspe][Nspe]-NH2) | < 0.2 mg/mL | 
2 | C[C@@H](c1ccccc1)N1CC(=O)N(CC(N)=O)CCCN2CCN(CC2)CC(=O)N([C@@H](C)c2ccccc2)CC(=O)N([C@@H](C)c2ccccc2)CC(=O)N([C@@H](C)c2ccccc2)CC(=O)N([C@@H](C)c2ccccc2)CC(=O)N([C@@H](C)c2ccccc2)CC1=O [Peptoid P4, Npl-(Nspe)6-Npz (cyclic)] | ~700 µM | 
3 | C[C@H](NCC(=O)N(CC(=O)N(CC(=O)N(CC(N)=O)[C@@H](C)c1cccc2ccccc12)[C@@H](C)c1cccc2ccccc12)[C@@H](C)c1cccc2ccccc12)c1cccc2ccccc12 [Peptoid P9, (Ns1npe)4, reference compound] | < 0.2 mg/mL | 
4 | C[C@H](NCC(=O)N(CC(=O)N(CC(=O)N(CC(=O)N(CC(N)=O)[C@@H](C)C1CCCCC1)[C@@H](C)C1CCCCC1)[C@@H](C)C1CCCCC1)[C@@H](C)C1CCCCC1)C1CCCCC1 [Peptoid P10, (Nsch)5, reference compound] | < 0.2 mg/mL | 
5 | C[C@@H](c1cccc2ccccc12)N(CC(N)=O)C(=O)CN(C(=O)CN(C(=O)CN(C(=O)CN1CCNCC1)[C@@H](C)c1cccc2ccccc12)[C@@H](C)c1cccc2ccccc12)[C@@H](C)c1cccc2ccccc12 [Peptoid P12, (Ns1npe)4-Npz] | < 0.2 mg/mL | 
6 | C[C@@H](c1cccc2ccccc12)N(CC(N)=O)C(=O)CN(C(=O)CN(C(=O)CN(C(=O)CN1CCCNCC1)[C@@H](C)c1cccc2ccccc12)[C@@H](C)c1cccc2ccccc12)[C@@H](C)c1cccc2ccccc12 [Peptoid P14, (Ns1npe)4-Nhpz] | < 0.2 mg/mL | 
7 | C[C@@H](C1CCCCC1)N(CC(N)=O)C(=O)CN(C(=O)CN(C(=O)CN(C(=O)CN(C(=O)CN1CCNCC1)[C@@H](C)C1CCCCC1)[C@@H](C)C1CCCCC1)[C@@H](C)C1CCCCC1)[C@@H](C)C1CCCCC1 [Peptoid P15, (Nsch)5-Npz] | < 0.2 mg/mL | 
8 | C[C@@H](C1CCCCC1)N(CC(N)=O)C(=O)CN(C(=O)CN(C(=O)CN(C(=O)CN(C(=O)CN1CCCNCC1)[C@@H](C)C1CCCCC1)[C@@H](C)C1CCCCC1)[C@@H](C)C1CCCCC1)[C@@H](C)C1CCCCC1 [Peptoid P16, (Nsch)5-Nhpz] | < 0.2 mg/mL | 
9 | C[C@H](c1ccccc1)N(CCC(N)=O)C(=O)CCN(C(=O)CCN(C(=O)CCN(C(=O)CCN(C(=O)CCN[C@H](C)c1ccccc1)[C@H](C)c1ccccc1)[C@H](C)c1ccccc1)[C@H](C)c1ccccc1)[C@H](C)c1ccccc1 [Peptoid P24, reference compound] | < 0.2 mg/mL | 
10 | C[C@H](c1ccccc1)N(CCC(N)=O)C(=O)CCN(C(=O)CCN(C(=O)CCN(C(=O)CCN(C(=O)CCN(C(=O)CN1CCNCC1)[C@H](C)c1ccccc1)[C@H](C)c1ccccc1)[C@H](C)c1ccccc1)[C@H](C)c1ccccc1)[C@H](C)c1ccccc1 [Peptoid P25] | < 0.2 mg/mL | 
11 | CCOC(=O)NNCC(=O)N(CC(=O)N(CC(=O)N(CC(=O)N(CC(=O)N(CC(N)=O)[C@H](C)c1ccccc1)NC(=O)OCC)[C@H](C)c1ccccc1)NC(=O)OCC)[C@H](C)c1ccccc1 [Peptoid P28, reference compound] (Ethoxycarbonyl-[Hydrazinoacetyl][Nrpe][Gly(Nα-NHCO2Et)][Nrpe][Gly(Nα-NHCO2Et)][Nrpe]-NH2) | < 0.2 mg/mL | 

Other lines, results leading:

Row | solubility | Water solubility relative to that of P2 | Compound
12 | ~900 µM |  | C[C@H](NCC(=O)N(CC(=O)N(CC(=O)N(CC(=O)N(CC(=O)N(CC(=O)N1CCN(CC(N)=O)CC1)[C@@H](C)c1ccccc1)[C@@H](C)c1ccccc1)[C@@H](C)c1ccccc1)[C@@H](C)c1ccccc1)[C@@H](C)c1ccccc1)c1ccccc1 [Peptoid P3, Npz-(Nspe)6] (H-[Nspe][Nspe][Nspe][Nspe][Nspe][Nspe]-X5)
13 | 49.6 mg/mL | about 50 times | C[C@@H](c1ccccc1)N(CC(N)=O)C(=O)CN(C(=O)CN(C(=O)CN(C(=O)CN(C(=O)CN(C(=O)CN1CCCNCC1)[C@@H](C)c1ccccc1)[C@@H](C)c1ccccc1)[C@@H](C)c1ccccc1)[C@@H](C)c1ccccc1)[C@@H](C)c1ccccc1 [Peptoid P7, (Nspe)6-Nhpz] (X3-[Nspe][Nspe][Nspe][Nspe][Nspe][Nspe]-NH2)
14 | < 0.2 mg/mL |  | C[C@@H](C1CCCCC1)N(CC(=O)N(CCc1ccc(Cl)cc1)CC(=O)N(CC(=O)N(CC(=O)N(CC(N)=O)Cc1ccccc1)Cc1ccccc1)[C@@H](C)C1CCCCC1)C(=O)CN(C)Cc1ccccc1F [Peptoid P11, (Npm)2-Nsch-Ncpe-Nsch-Nfpm, reference compound] ({NMeGly(N-(2-F-benzyl))}-[N(1S-cyclohexylethyl)Gly][Gly(N-CH2CH2C6H4-4Cl)][N(1S-cyclohexylethyl)Gly][Nphe][Nphe]-NH2)
15 | < 0.2 mg/mL |  | C[C@H](NCC(=O)N(CC(=O)N(CC(=O)N(CC(=O)N1CCN(CC(N)=O)CC1)[C@@H](C)c1cccc2ccccc12)[C@@H](C)c1cccc2ccccc12)[C@@H](C)c1cccc2ccccc12)c1cccc2ccccc12 [Peptoid P13, Npz-(Ns1npe)4]
16 | < 0.2 mg/mL |  | C[C@@H](C1CCCCC1)N(CC(=O)N(CCc1ccc(Cl)cc1)CC(=O)N(CC(=O)N(CC(=O)N(CC(=O)N1CCN(CC(N)=O)CC1)Cc1ccccc1)Cc1ccccc1)[C@@H](C)C1CCCCC1)C(=O)CN(C)Cc1ccccc1F [Peptoid P17, Npz-(Npm)2-Nsch-Ncpe-Nsch-Nfpm] ({NMeGly(N-(2-F-benzyl))}-[N(1S-cyclohexylethyl)Gly][Gly(N-CH2CH2C6H4-4Cl)][N(1S-cyclohexylethyl)Gly][Nphe][Nphe]-X5)
17 | 7.52 mg/mL |  | C[C@@H](C1CCCCC1)N(CC(N)=O)C(=O)CN(C(=O)CN(C(=O)CN(C(=O)CN(C(=O)CN1CCN(C(=O)CN2CCNCC2)CC1)[C@@H](C)C1CCCCC1)[C@@H](C)C1CCCCC1)[C@@H](C)C1CCCCC1)[C@@H](C)C1CCCCC1 [Peptoid P19, (Nsch)5-(Npz)2] ({Acetyl(2-(piperazin-1-yl))}-[X1][N(1S-cyclohexylethyl)Gly][N(1S-cyclohexylethyl)Gly][N(1S-cyclohexylethyl)Gly][N(1S-cyclohexylethyl)Gly][N(1S-cyclohexylethyl)Gly]-NH2)
18 | 84.4 mg/mL |  | C[C@@H](C1CCCCC1)N(CC(=O)N(CCc1ccc(Cl)cc1)CC(=O)N(CC(=O)N(CC(=O)N(CC(=O)N1CCN(CC(=O)N2CCN(CC(N)=O)CC2)CC1)Cc1ccccc1)Cc1ccccc1)[C@@H](C)C1CCCCC1)C(=O)CN(C)Cc1ccccc1F [Peptoid P20, (Npz)2-(Npm)2-Nsch-Ncpe-Nsch-Nfpm] ({NMeGly(N-(2-F-benzyl))}-[N(1S-cyclohexylethyl)Gly][Gly(N-CH2CH2C6H4-4Cl)][N(1S-cyclohexylethyl)Gly][Nphe][Nphe][X1]-X5)
19 | 73.5 mg/mL |  | C[C@@H](C1CCCCC1)N(CC(N)=O)C(=O)CN(C(=O)CN(C(=O)CN(C(=O)CN(C(=O)CN1CCN(C(=O)CN2CCN(C(=O)CN3CCNCC3)CC2)CC1)[C@@H](C)C1CCCCC1)[C@@H](C)C1CCCCC1)[C@@H](C)C1CCCCC1)[C@@H](C)C1CCCCC1 [Peptoid P22, (Nsch)5-(Npz)3] ({Acetyl(2-(piperazin-1-yl))}-[X1][X1][N(1S-cyclohexylethyl)Gly][N(1S-cyclohexylethyl)Gly][N(1S-cyclohexylethyl)Gly][N(1S-cyclohexylethyl)Gly][N(1S-cyclohexylethyl)Gly]-NH2)
20 | 135 mg/mL |  | C[C@@H](C1CCCCC1)N(CC(=O)N(CCc1ccc(Cl)cc1)CC(=O)N(CC(=O)N(CC(=O)N(CC(=O)N1CCN(CC(=O)N2CCN(CC(=O)N3CCN(CC(N)=O)CC3)CC2)CC1)Cc1ccccc1)Cc1ccccc1)[C@@H](C)C1CCCCC1)C(=O)CN(C)Cc1ccccc1F [Peptoid P23, (Npz)3-(Npm)2-Nsch-Ncpe-Nsch-Nfpm] ({NMeGly(N-(2-F-benzyl))}-[N(1S-cyclohexylethyl)Gly][Gly(N-CH2CH2C6H4-4Cl)][N(1S-cyclohexylethyl)Gly][Nphe][Nphe][X1][X1]-X5)
21 | 103 mg/mL |  | C[C@H](c1ccccc1)N(CCC(N)=O)C(=O)CCN(C(=O)CCN(C(=O)CCN(C(=O)CCN(C(=O)CCN(C(=O)CN1CCN(C(=O)CN2CCNCC2)CC1)[C@H](C)c1ccccc1)[C@H](C)c1ccccc1)[C@H](C)c1ccccc1)[C@H](C)c1ccccc1)[C@H](C)c1ccccc1 [Peptoid P26]
22 | 50.6 mg/mL |  | CCOC(=O)NN(CC(=O)N(CC(N)=O)[C@H](C)c1ccccc1)C(=O)CN(C(=O)CN(NC(=O)OCC)C(=O)CN(C(=O)CN(NC(=O)OCC)C(=O)CN1CCNCC1)[C@H](C)c1ccccc1)[C@H](C)c1ccccc1 [Peptoid P29] ({Acetyl(2-(piperazin-1-yl))}-[Gly(Nα-NHCO2Et)][Nrpe][Gly(Nα-NHCO2Et)][Nrpe][Gly(Nα-NHCO2Et)][Nrpe]-NH2)

Same assay, conditions: pH 10.5

Row | Compound | Water solubility at pH 10.5 (in words) | Water solubility relative to that of P2 at pH 10.5 [times]
23 | C[C@@H](c1ccccc1)N(CC(N)=O)C(=O)CN(C(=O)CN(C(=O)CN(C(=O)CN(C(=O)CN(C(=O)CN1CCN(C(=O)CN2CCN(C(=O)CN3CCNCC3)CC2)CC1)[C@@H](C)c1ccccc1)[C@@H](C)c1ccccc1)[C@@H](C)c1ccccc1)[C@@H](C)c1ccccc1)[C@@H](C)c1ccccc1 [Peptoid P6, (Nspe)6-(Npz)3] ({Acetyl(2-(piperazin-1-yl))}-[X1][X1][Nspe][Nspe][Nspe][Nspe][Nspe][Nspe]-NH2) | highly soluble | 106

Same assay, conditions: water; average of three tests; limit of test 2.0×10^2 mg/liter; read-out: Water solubility

Row | Compound | solubility [mg/mL]
24 | C[C@@H](c1ccccc1)N(CC(N)=O)C(=O)CN(C(=O)CN(C(=O)CN(C(=O)CN(C(=O)CN(C(=O)CN1CCN(C(=O)CN2CCN(C(=O)CN3CCNCC3)CC2)CC1)[C@@H](C)c1ccccc1)[C@@H](C)c1ccccc1)[C@@H](C)c1ccccc1)[C@@H](C)c1ccccc1)[C@@H](C)c1ccccc1 [Peptoid P6, (Nspe)6-(Npz)3] ({Acetyl(2-(piperazin-1-yl))}-[X1][X1][Nspe][Nspe][Nspe][Nspe][Nspe][Nspe]-NH2) | 88.6
25 | C[C@H](c1ccccc1)N(CCC(N)=O)C(=O)CCN(C(=O)CCN(C(=O)CCN(C(=O)CCN(C(=O)CCN(C(=O)CN1CCN(C(=O)CN2CCN(C(=O)CN3CCNCC3)CC2)CC1)[C@H](C)c1ccccc1)[C@H](C)c1ccccc1)[C@H](C)c1ccccc1)[C@H](C)c1ccccc1)[C@H](C)c1ccccc1 [Peptoid P27] | 196
